In ChEMBL document CHEMBL1131941, “Synthesis and biological evaluation of alpha,alpha-difluorobenzylphosphonic acid derivatives as small molecular inhibitors of protein-tyrosine phosphatase 1B” (Bioorg Med Chem Lett, 1999):

target: T1, Tyrosine-protein phosphatase non-receptor type 1 (Homo sapiens, UniProt P18031); test: Inhibitory potency for the protein tyrosine phosphatase (PTP 1B)-catalyzed hydrolysis of p-nitrophenol phosphate; type: functional
T1 sequence (P18031 whole entry): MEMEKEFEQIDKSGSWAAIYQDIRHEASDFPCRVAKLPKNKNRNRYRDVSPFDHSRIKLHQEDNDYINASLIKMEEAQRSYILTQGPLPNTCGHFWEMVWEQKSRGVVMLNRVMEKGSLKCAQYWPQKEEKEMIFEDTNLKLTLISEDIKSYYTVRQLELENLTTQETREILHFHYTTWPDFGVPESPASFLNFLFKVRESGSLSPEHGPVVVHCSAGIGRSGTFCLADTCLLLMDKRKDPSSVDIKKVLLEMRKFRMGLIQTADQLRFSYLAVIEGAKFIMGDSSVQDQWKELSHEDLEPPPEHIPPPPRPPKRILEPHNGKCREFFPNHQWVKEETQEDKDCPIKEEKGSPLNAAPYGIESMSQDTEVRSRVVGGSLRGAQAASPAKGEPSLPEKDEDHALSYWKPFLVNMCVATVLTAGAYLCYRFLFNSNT

`O=P(O)(O)C(F)(F)c1ccc(C#Cc2ccccc2)cc1` and `O=P(O)(O)C(F)(F)c1cccc(C#Cc2ccccc2)c1` are within 1.5-fold of each other in IC50: 128 µM for the first, 136 µM for the second.

First: COc1ccc(-c2ccc(C(F)(F)P(=O)(O)O)cc2)cc1
Second: O=P(O)(O)C(F)(F)c1ccc(-c2ccccc2)cc1
The IC50 of the first is 1.7-fold lower: 451 µM for the first, 779 µM for the second. The first is the more potent here.

`O=P(O)(O)C(F)(F)c1ccc(/C=C/c2ccccc2)cc1` and `O=P(O)(O)C(F)(F)c1cccc(/C=C/c2ccccc2)c1` are within 1.5-fold of each other in IC50: 450 µM for the first, 386 µM for the second.

Compared with `CS(=O)(=O)Nc1cc(C(F)(F)P(=O)(O)O)ccc1C#Cc1ccccc1`, `CS(=O)(=O)N(c1cc(C(F)(F)P(=O)(O)O)ccc1C#Cc1ccccc1)S(C)(=O)=O` is 1.9-fold lower in IC50: 167 µM for the first, 88.7 µM for the second.

Compared with `CS(=O)(=O)Nc1cc(C(F)(F)P(=O)(O)O)ccc1/C=C/c1ccccc1`, `CS(=O)(=O)N(c1cc(C(F)(F)P(=O)(O)O)ccc1/C=C/c1ccccc1)S(C)(=O)=O` is 3-fold lower in IC50: 176 µM for the first, 57.9 µM for the second. The second is the more potent here.

First: C#Cc1ccc(C(F)(F)P(=O)(O)O)cc1
Second: C#Cc1cccc(C(F)(F)P(=O)(O)O)c1
The IC50 of the first is 4.1-fold higher: 77.5 µM for the first, 19 µM for the second. The second is the more potent here.

Work on `O=P(O)(O)C(F)(F)c1ccc2ccccc2c1` yielded an IC50 of 718 µM.

target: T1, Tyrosine-protein phosphatase non-receptor type 1; test: Inhibitory potency for the protein tyrosine phosphatase (PTP 1B)-catalyzed hydrolysis of p-nitrophenol phosphate; No inhibition; type: functional

With `O=P(O)(O)C(F)(F)c1ccccc1` the IC50 was “Not Active”.
